Assays:
[1] = Metabolite identification in human liver microsomes; assay type: in vitro ADME; details: 7–16 10 µM, liver microsomes 1 mg/mL, NADPH, 37 °C, 60 min
Method: (§1) In accordance with our previous methods, 7–16 (10 µM) was incubated with mouse, rat, dog, monkey, and human liver microsome proteins (1 mg/mL) in 100 mM sodium phosphate buffer (pH 7.4) containing 10 mM magnesium chloride and 2 mM NADPH at 37 °C for 60 min. All samples were prepared in duplicates. The reactions were terminated by adding three times the volume of ice-cold acetonitrile (600 µL) and stored at −20 °C until analysis. Control samples without NADPH and 0-time point samples were included. As a positive control, testosterone (10 µM), which was metabolized to produce the hydroxylation metabolite, was used as a substrate to confirm the activity of the incubation system.
(§2) After pre-treatments, the samples were analyzed by an Acquity UPLC system coupled with a diode array detector (Waters Corporation, Milford, MA, USA) and Q Exactive HRMS (Thermo Electron Corporation, Waltham, MA, USA) (UPLC–UV-Q Exactive HRMS). Samples were separated on an Agilent XDB C18 column (150 × 2.1 mm i.d. 3.5 μm, Agilent Corporation, Santa Clara, CA, USA) at 40 °C by gradient elution with water and acetonitrile containing 0.1% formic acid. The flow rate was 0.40 mL/min. The ultraviolet (UV) detection wavelength was 286 nm. Q Exactive HRMS were operated at positive ion mode (3.5 kV) using a heating electrospray ionization source. Mass calibration was required to be performed before conducting experiments so as to achieve the best mass accuracy and mass calibration should be performed every five days. The metabolites were detected by full MS/dd-MS^2 analysis from m/z 100 to m/z 1000. The resolution of the first-class scan and second-class scan was 70,000 and 17,500, respectively. Thermo Compound Discover software was used to identify expected and unknown metabolites, and we finally proposed the 7–16 metabolic pathways based on the deduced metabolites and relevant drug biotransformation knowledge.

[2] = Metabolite identification in mouse liver microsomes; assay type: in vitro ADME; details: 7–16 10 µM, liver microsomes 1 mg/mL, NADPH, 37 °C, 60 min
Method: as §1, §2

[3] = Excretion and metabolite identification in bile duct cannulated (BDC) rats; assay type: in vivo, Sprague-Dawley rats
Method: In the urine and feces excretion experiment, six rats (3 females and 3 males) were administered a single oral dose of [^14C]7–16 at 3 mg/100 µCi/kg. Urine, feces and cage washing/cleaning solution samples were collected from 0 to 168 h following drug administration at the following time intervals: 0–8, 8–24 h (0–24 h for feces), 24–48, 48–72, 72–96, 96–120, 120–144, and 144–168 h. In the biliary excretion experiment, 8 rats using a bile duct cannula (BDC) (4 females and 4 males) were administered a single oral dose of [^14C]7–16 at 3 mg/100 µCi/kg. Bile, urine, feces, and cage washing solution were collected from before and 0–72 h after oral administration at the following time intervals: 0–4, 4–8 (urine 0–8), 8–24 (feces 0–24), 24–48, and 48–72 h. All samples were collected and refrigerated at −20 °C until determination of the radioactive concentrations by liquid scintillation counter (Perkin Elmer Corporation, Waltham, MA, USA). Urine, feces, and bile samples at each time period were mixed by equal percentages of either volume or weight. After the mixed samples were treated, the radio-profiles and metabolite identification in the bile, urine, and feces samples were carried out by LC-RAM and UPLC-Q Exactive HRMS, and the TRA% of each metabolite in plasma and the percentage of dose (dose%) of each compound in urine, feces, and bile samples were calculated.

For `CN1CCC(N(Cc2ccc(F)cn2)C(=O)NCc2ccc(OCC(F)(F)F)cc2)CC1` [7–16, 3-(4-(2,2,2-trifluoroethoxy)benzyl)-1-((5-fluoropyridin-2-yl)methyl)-1-(1-methylpiperidin-4-yl) urea], the “Relative Abundance, UV Area% Human” value [1] was 95.2%, the “Relative Abundance, UV Area% Mouse” value [2] was 91.3% and the “recovery of radioactivity in bile, percent of dose” value ([3]; BDC rats, 0–72 h) was 18.4%. For the same compound, the “recovery of radioactivity in cage rinse/wash, percent of dose” value ([3]; BDC rats, 0–72 h) was 3.42%, the “recovery of radioactivity in feces, percent of dose” value ([3]; BDC rats, 0–72 h) was 20.2% and the “recovery of radioactivity in urine, percent of dose” value ([3]; BDC rats, 0–72 h) was 56.3%. The “total recovery of radioactivity, percent of dose” value ([3]; BDC rats, 0–72 h, oral 3 mg/100 µCi/kg, mean of both sexes) was 98.3%, the “recovery of radioactivity within the first 24 h, percent of dose” value ([3]; BDC rats, first 24 h post-administration) was 82.8% and the absorption rate ([3]; calculated from dose excreted in bile and urine of BDC rats, oral) was “at least 74.7%”.
